IC50 data for 37 compounds are collected here from ChEMBL document CHEMBL4819020, “Discovery of [1,2,4]triazolo[1,5-a]pyrimidines derivatives as potential anticancer agents” (Eur J Med Chem, 2021).

For experiment [1], the system named is MCF7. As to the kind of experiment: Antiproliferative activity against human MCF7 cells assessed as inhibition of cell proliferation measured after 72 hrs by MTT assay. The experiment is classed as functional, cell-based. The following applies: MCF7, 72 h. On the technique in general: Tetrazolium dyes change colour on reduction, which living cells bring about.

For experiment [2], the system named is PC-9. The experiment in a line: Antiproliferative activity against human PC-9 cells assessed as inhibition of cell proliferation measured after 72 hrs by MTT assay. The format is functional, cell-based. Conditions: PC-9, 72 h.
For experiment [3], the system named is MGC-803. The experiment in a line: Antiproliferative activity against human MGC-803 cells assessed as inhibition of cell proliferation measured after 72 hrs by MTT assay. The experiment is classed as functional, cell-based. The following applies: MGC-803, 72 h.
Experiment [4] concerns GES1. As to the kind of experiment: Antiproliferative activity against human GES1 cells assessed as inhibition of cell proliferation measured after 72 hrs by MTT assay. The experiment is classed as cell-based. Conditions: GES1, 72 h.

As a reminder, the IC50 is the concentration that gives 50% inhibition.

With `Cc1cc(Nc2ccn(Cc3ccccc3)n2)n2nc(SCc3ccc(Br)cc3)nc2n1`, the IC50 in experiment [1] was 15.8 µM; in experiment [2], greater than 50 µM; in experiment [3], 4.72 µM; in experiment [4], 44.4 µM.

Regarding `Cc1cc(Nc2cc(-c3ccccc3)[nH]n2)n2nc(SCc3ccc(Br)cc3)nc2n1`, the IC50 turned out to be 2.72 µM in experiment [1], 4.76 µM in experiment [2], 1.11 µM in experiment [3] and 39.3 µM in experiment [4].

As to `COc1ccc(Cn2ccc(Nc3cc(C)nc4nc(SCc5ccc(Br)cc5)nn34)n2)cc1`, the IC50 was 14.6 µM in experiment [1], greater than 50 µM in experiment [2], 12.6 µM in experiment [3] and greater than 50 µM in experiment [4].

Consider `Cc1cc(Nc2ccn(Cc3ccc(C(F)(F)F)cc3)n2)n2nc(SCc3ccc(Br)cc3)nc2n1`, for which the IC50 in experiment [1] was 2.28 µM; in experiment [2], 5.58 µM; in experiment [3] it was 2.59 µM; in experiment [4], 30.2 µM.

Consider `Cc1cc(Nc2cc(-c3ccccc3)[nH]n2)n2nc(SCc3cccc4ccccc34)nc2n1`, for which the IC50 in experiment [1] is 7.56 µM; in experiment [2], 3.95 µM; in experiment [3] it was 3.12 µM; in experiment [4] it was 36.3 µM.

Take `Cc1cc(Nc2cc(-c3ccccc3)[nH]n2)n2nc(SCc3ccc(C(F)(F)F)cc3)nc2n1`: the half-inhibitory concentration (IC50) in experiment [1] amounted to 4.82 µM; in experiment [2] it was 4.24 µM; in experiment [3] it was 3.52 µM; in experiment [4], 42.7 µM.

On to `Cc1cc(Nc2cc(-c3ccc(Cl)cc3)[nH]n2)n2nc(SCc3ccc(Br)cc3)nc2n1`, for which the IC50 in experiment [1] worked out at 3.62 µM; in experiment [2], 4.92 µM; in experiment [3] it was 2.78 µM; in experiment [4], 28.2 µM.

As to `C#CCSc1nc2nc(C)cc(Nc3cc(-c4ccccc4)[nH]n3)n2n1`, the IC50 in experiment [1] is 21.8 µM; in experiment [2], greater than 50 µM; in experiment [3], 13.4 µM; in experiment [4] it was 45.7 µM.

In the case of `Cc1cc(Nc2cc(-c3ccccc3)[nH]n2)n2nc(SCc3ccc(Cl)cc3)nc2n1`, the IC50 was 8.26 µM in experiment [1], 6.71 µM in experiment [2], 3.95 µM in experiment [3] and 31.8 µM in experiment [4].

On to `O=c1[nH]cc(F)c(=O)[nH]1` [FLUOROURACIL], for which the IC50 in experiment [1] was 5.32 µM; in experiment [4] it was 2.45 µM.

As to `Cc1cc(Nc2cc(-c3ccccc3)[nH]n2)n2ncnc2n1`, the IC50 in experiment [1] was greater than 50 µM; in experiment [2] it was greater than 50 µM; in experiment [3], 21.7 µM; in experiment [4] it was greater than 50 µM.

Take `Cc1cc(Nc2cc(-c3ccccc3)[nH]n2)n2nc(SCc3cc(=O)oc4c3ccc3ccccc34)nc2n1`: the IC50 amounted to 4.28 µM in experiment [1], 3.41 µM in experiment [2], 2.07 µM in experiment [3] and 28.6 µM in experiment [4].

With `CCCSc1nc2nc(C)cc(Nc3cc(-c4ccccc4)[nH]n3)n2n1`, the IC50 in experiment [1] is greater than 50 µM; in experiment [2], greater than 50 µM; in experiment [3], 12.6 µM; in experiment [4] it was greater than 50 µM.

On to `Cc1cc(Nc2cc(-c3ccccc3)[nH]n2)n2nc(SCCc3ccccc3)nc2n1`, for which the IC50 is 2.7 µM in experiment [1], 4.93 µM in experiment [2], 5.62 µM in experiment [3] and 37.4 µM in experiment [4].

With `Cc1cc(Nc2ccn(Cc3ccc(F)cc3)n2)n2nc(SCc3ccc(Br)cc3)nc2n1`, the IC50 in experiment [1] was determined as 4.28 µM; in experiment [2], 19.4 µM; in experiment [3], 3.07 µM; in experiment [4], 40.5 µM.

Consider `Cc1ccc(CSc2nc3nc(C)cc(Nc4cc(-c5ccccc5)[nH]n4)n3n2)cc1`, for which the IC50 in experiment [1] was 7.29 µM; in experiment [2], 7.31 µM; in experiment [3] it was 6.96 µM; in experiment [4], 36.2 µM.

Turning to `Cc1cc(Nc2cc(-c3ccccc3)[nH]n2)n2nc(SCc3ccc([N+](=O)[O-])cc3)nc2n1`, the IC50 was 5.06 µM in experiment [1], 7.98 µM in experiment [2], 4.25 µM in experiment [3] and 43.6 µM in experiment [4].

Consider `Cc1cc(Nc2cc(-c3ccccc3)[nH]n2)n2nc(SCc3cccc(Br)c3)nc2n1`, for which the IC50 was 5.14 µM in experiment [1], 8.9 µM in experiment [2], 4.82 µM in experiment [3] and greater than 50 µM in experiment [4].

As for `Cc1cc(Nc2cc(-c3ccccc3)[nH]n2)n2nc(SCc3nc4ccccc4[nH]3)nc2n1`, the IC50 in experiment [1] stood at 2.73 µM; in experiment [2], 4.84 µM; in experiment [3] it was 1.79 µM; in experiment [4] it was 27.8 µM.

Turning to `Cc1nc2nc(SCc3ccc(Cl)cc3)nn2c(Nc2cc(-c3ccccc3)[nH]n2)c1C`, the IC50 in experiment [1] is 10.6 µM; in experiment [2], greater than 50 µM; in experiment [3], 9.05 µM; in experiment [4], 47.2 µM.

`Cc1cc(Nc2cc(C(C)(C)C)[nH]n2)n2nc(SCc3ccc(Br)cc3)nc2n1`: the IC50 in experiment [1] is 7.29 µM; in experiment [2], 12.4 µM; in experiment [3], 5.62 µM; in experiment [4], greater than 50 µM.

Regarding `Cc1cc(Nc2cc(-c3ccc(F)cc3)[nH]n2)n2nc(SCc3ccc(Br)cc3)nc2n1`, the IC50 in experiment [1] is 4.57 µM; in experiment [2], 6.21 µM; in experiment [3] it was 2.21 µM; in experiment [4] it was 34.1 µM.

Regarding `Cc1cc(Nc2cc(-c3ccccc3)[nH]n2)n2nc(SCc3ccc(F)cc3)nc2n1`, the IC50 in experiment [1] stood at 4.02 µM; in experiment [2], 8.11 µM; in experiment [3], 3.27 µM; in experiment [4], 35.5 µM.

Consider `CCCCCc1c(C)nc2nc(SCc3ccc(Cl)cc3)nn2c1Nc1cc(-c2ccccc2)[nH]n1`, for which the IC50 in experiment [1] is 6.39 µM; in experiment [2] it was greater than 50 µM; in experiment [3], 7.14 µM; in experiment [4], greater than 50 µM.

On to `Cc1cc(Nc2cc(-c3ccccc3)[nH]n2)n2nc(SCCCc3ccccc3)nc2n1`, for which the IC50 turned out to be 3.9 µM in experiment [1], 5.03 µM in experiment [2], 6.51 µM in experiment [3] and 40.2 µM in experiment [4].

As for `Cc1cc(Nc2ccn(Cc3cccc4ccccc34)n2)n2nc(SCc3ccc(Br)cc3)nc2n1`, the IC50 in experiment [1] came to 4.31 µM; in experiment [2] it was 5.66 µM; in experiment [3], 3.24 µM; in experiment [4] it was 30 µM.

In the case of `Cc1cc(Nc2cc(-c3ccccc3)[nH]n2)n2nc(SCc3csc4ccccc34)nc2n1`, the IC50 in experiment [1] was 3.47 µM; in experiment [2], 4.42 µM; in experiment [3] it was 2.28 µM; in experiment [4], 29.2 µM.

Regarding `Cc1cc(Nc2cc(-c3ccccc3)[nH]n2)n2nc(SCc3c(Cl)cccc3Cl)nc2n1`, the IC50 was found to be 3.23 µM in experiment [1], 5.18 µM in experiment [2], 5.28 µM in experiment [3] and 39.6 µM in experiment [4].

Take `C=CCSc1nc2nc(C)cc(Nc3cc(-c4ccccc4)[nH]n3)n2n1`: the IC50 was greater than 50 µM in experiment [1], greater than 50 µM in experiment [2], 17.2 µM in experiment [3] and greater than 50 µM in experiment [4].

As to `Cc1cc(Nc2cc(-c3ccccc3)[nH]n2)n2nc(SCC3CCCCC3)nc2n1`, the IC50 is greater than 50 µM in experiment [1], greater than 50 µM in experiment [2], 12.6 µM in experiment [3] and greater than 50 µM in experiment [4].

In the case of `Cc1cc(Nc2cc(-c3ccccc3)[nH]n2)n2nc(SCc3ccccc3Br)nc2n1`, the IC50 in experiment [1] was 3.02 µM; in experiment [2] it was 5.63 µM; in experiment [3], 3.65 µM; in experiment [4], 41.1 µM.

For the compound `Cc1ccc(Cn2ccc(Nc3cc(C)nc4nc(SCc5ccc(Br)cc5)nn34)n2)cc1`, the IC50 in experiment [1] was 11.3 µM; in experiment [2] it was greater than 50 µM; in experiment [3] it was 7.42 µM; in experiment [4], greater than 50 µM.

As for `COc1ccc(CSc2nc3nc(C)cc(Nc4cc(-c5ccccc5)[nH]n4)n3n2)cc1`, the IC50 in experiment [1] worked out at 4.02 µM; in experiment [2], 8.11 µM; in experiment [3] it was 3.17 µM; in experiment [4], 28.2 µM.

For the compound `Cc1cc(Nc2ccn(Cc3csc4ccc(Cl)cc34)n2)n2nc(SCc3ccc(Br)cc3)nc2n1`, the IC50 came out at 2.57 µM in experiment [1], 4.35 µM in experiment [2], 1.57 µM in experiment [3] and 31.4 µM in experiment [4].

Regarding `Cc1cc(Nc2cc(-c3ccccc3)[nH]n2)n2nc(SCC3CC3)nc2n1`, the IC50 is greater than 50 µM in experiment [1], greater than 50 µM in experiment [2], 16.1 µM in experiment [3] and greater than 50 µM in experiment [4].

Take `Cc1cc(Nc2cc(-c3cccs3)[nH]n2)n2nc(SCc3ccc(Br)cc3)nc2n1`: the IC50 in experiment [1] was 5.37 µM; in experiment [2] it was 4.89 µM; in experiment [3], 3.77 µM; in experiment [4] it was 38.7 µM.

On to `Cc1cc(Nc2cc(-c3ccccc3)[nH]n2)n2nc(SCC(=O)c3ccccc3)nc2n1`, for which the IC50 in experiment [1] is 5.24 µM; in experiment [2], 4.45 µM; in experiment [3], 2.58 µM; in experiment [4] it was 33.3 µM.
